Source: ChEMBL document CHEMBL4888484, “Replenishing the malaria drug discovery pipeline: Screening and hit evaluation of the MMV Hit Generation Library 1 (HGL1) against asexual blood stage Plasmodium falciparum ,using a nano luciferase reporter read-out” (2022)

Legend:
[1] = Hit confirmation in dose-response curve in HepG2 cytotoxicity assay, at 72h; assay type: toxicity, cell-based; parameters: timepoint 72 hour; conditions: human, HepG2 cells
Plasmodium falciparum [2] = assay: Hit confirmation in dose-response curve in Dd2 pLDH assay, at 72h; assay type: functional, organism-based; parameters: timepoint 72 hour; conditions: Dd2, Erythrocyte
Plasmodium falciparum [3] = assay: Hit confirmation in dose-response curve in NF54 nanoGlo assay, at 72h; assay type: functional, organism-based, Erythrocyte; parameters: timepoint 72 hour; conditions: Plasmodium falciparum, NF54, Erythrocyte, 72 h
Plasmodium falciparum [4] = assay: Hit confirmation in dose-response curve in NF54 nanoGlo assay, at 12h; assay type: functional, organism-based, Erythrocyte; parameters: timepoint 12 hour; conditions: Plasmodium falciparum, NF54, Erythrocyte, 12 h
Plasmodium falciparum [5] = assay: Hit confirmation in dose-response curve in NF54 pLDH assay, at 72h; assay type: functional, organism-based; parameters: timepoint 72 hour; conditions: NF54, Erythrocyte

Compound	IC50 at 72 h [1]	IC50 (Plasmodium falciparum [2])	IC50 (Plasmodium falciparum [3])	IC50 (Plasmodium falciparum [4])	IC50 (Plasmodium falciparum [5])
Cn1c(N)c(S(=O)(=O)N2CCN(c3ccccc3Cl)CC2)c(=O)n(C)c1=O	> 10 µM	> 10 µM	1.51 µM	0.501 µM	> 10 µM
Cc1ccc(OCC(=O)Nc2cc(C)nn2-c2nc3c(cnn3-c3ccc(C)c(C)c3)c(=O)[nH]2)cc1	> 10 µM	6.92 µM	2.09 µM	> 10 µM	4.07 µM
Cc1cccc(CN2CCC[C@H](C(=O)c3ccc4c5c(cccc35)CC4)C2)n1	> 10 µM	5.5 µM	1.66 µM	4.57 µM	3.72 µM
Cc1cc(=O)[nH]c(-n2nc(C3CC3)cc2NC(=O)C(C)(C)Oc2ccc(Cl)cc2)n1	> 10 µM	5.01 µM	1.1 µM	> 10 µM	> 10 µM
COc1ccc2c(c1)[n+](CC(=O)c1ccc(-c3ccc(Br)cc3)cc1)c(CO)n2C	> 10 µM	5.37 µM	1.91 µM	> 10 µM	5.62 µM
COc1ccc(Nc2nnc(-c3ccc(NC(=O)C(=O)NCCCn4ccnc4)cc3)s2)cc1	> 10 µM	4.27 µM	1.29 µM	2.69 µM	6.17 µM
Clc1ccc(C[n+]2ccc(-c3nc4ccccc4o3)cc2)c(Cl)c1	> 10 µM	0.525 µM	0.575 µM	> 10 µM	0.603 µM
CCOc1ccc(-[n+]2cc(-c3ccccc3)n3c2CCC3)cc1	> 10 µM	1 µM	0.832 µM	> 10 µM	0.759 µM
COc1ccc(OC)c(NC(=O)CN2CCc3[nH]c4ccc(F)cc4c(=O)c3C2)c1	> 10 µM	7.94 µM	8.32 µM	> 10 µM	> 10 µM
COc1ccc(-n2ncc3c(N)c4c(nc32)CCCC4=O)cc1	> 10 µM	> 10 µM	6.61 µM	3.89 µM	> 10 µM
COc1cccc(-c2nn(-c3nc(-c4ccccc4)cc(C(F)(F)F)n3)c(-c3cccc(OC)c3)c2Cl)c1	> 10 µM	> 10 µM	6.17 µM	> 10 µM	8.32 µM
CC(C)c1cc(=O)[nH]c(-n2nc(C3CC3)cc2NC(=O)c2ccc(F)cc2)n1	10 µM	2.82 µM	0.708 µM	> 10 µM	6.46 µM
S=c1cc(-c2ccccc2)n(Cc2ccco2)c2c1CCCC2	> 10 µM	6.46 µM	2.57 µM	8.13 µM	6.46 µM
CCOc1ccc2ccccc2c1C(=O)Nc1cc(C)nn1-c1nc2c(c(=O)[nH]1)CCC2	> 10 µM	2.09 µM	0.589 µM	> 10 µM	2 µM
O=C(Nc1onc2c1CCC2)c1ccc2ccccc2c1	4.07 µM	4.27 µM	2.82 µM	3.02 µM	4.79 µM
Cc1cc(=O)[nH]c(-n2nc(C3CC3)cc2NC(=O)C(c2ccccc2)c2ccccc2)n1	7.59 µM	3.09 µM	0.955 µM	8.32 µM	2.14 µM
Cc1cc(N)nc(Nc2ccc(Nc3ccccc3)cc2)n1	> 10 µM	5.37 µM	2.24 µM	6.46 µM	3.31 µM
CN1CC[C@H](CN(C)Cc2ccc3cc(O)ccc3c2)C1	> 10 µM	3.02 µM	1.78 µM	4.27 µM	0.832 µM
CC(C)c1cc(=O)[nH]c(-n2nc(C3CC3)cc2NC(=O)COc2ccc3ccccc3c2)n1	> 10 µM	8.91 µM	1.62 µM	> 10 µM	9.33 µM

Compound	IC50 at 72 h [1]	IC50 (Plasmodium falciparum [2])	IC50 (Plasmodium falciparum [3])	IC50 (Plasmodium falciparum [4])	IC50 (Plasmodium falciparum [5])
Cc1c(-c2nn(-c3nc(C4CC4)cc(C(F)(F)F)n3)c(-c3cnn(C)c3C)c2Cl)cnn1C	> 10 µM	> 10 µM	1.1 µM	0.407 µM	> 10 µM
c1ccc(-c2cn3c(n2)c(-c2ccc4ccccc4n2)cc2ccccc23)cc1	> 10 µM	> 10 µM	8.13 µM	10.5 µM	> 10 µM
N#Cc1c(NC(=O)Nc2cn3ccccc3c2C#N)cn2ccccc12	> 10 µM	1 µM	0.302 µM	> 10 µM	1.35 µM
Cc1ccc(-c2cc(O)cc(CC[C@H]3CCCCN3)c2)c(C)n1	> 10 µM	1.66 µM	1.86 µM	5.62 µM	2.82 µM
FC(F)Oc1ccc(-c2c[n+](-c3cccc(C(F)(F)F)c3)c3n2CCCCC3)cc1	> 10 µM	8.91 µM	2.45 µM	> 10 µM	2.14 µM
Cc1ccc(N2C(=O)c3ccccc3[C@@H]2c2c[nH]c3ccccc23)cc1	> 10 µM	6.92 µM	2.63 µM	5.5 µM	7.41 µM
COc1nc(-c2cccc(C(=O)NCC3CCOCC3)c2)ncc1F	> 10 µM	> 10 µM	0.575 µM	> 10 µM	1.66 µM
COc1ccc(Cl)cc1C(=O)Nc1cc(C2CC2)nn1-c1nc(C)cc(=O)[nH]1	> 10 µM	8.13 µM	1.78 µM	> 10 µM	> 10 µM
O=C(Nc1cccc(Cl)c1)Nc1cccc(-c2cnc3n2CCC3)c1	> 10 µM	3.89 µM	2.4 µM	5.89 µM	5.37 µM
Cc1cc(=O)[nH]c(-n2nc(C3CC3)cc2NC(=O)c2ccc(C(C)(C)C)cc2)n1	> 10 µM	> 10 µM	1.86 µM	> 10 µM	> 10 µM
CCC(CC)C(=O)Nc1cc(C2CC2)nn1-c1nc(-c2ccccc2)cc(=O)[nH]1	> 10 µM	3.55 µM	2.14 µM	> 10 µM	6.61 µM
O=C(c1cc(-c2ccco2)n[nH]1)N1CCC(N2CCC(Oc3ccccc3F)CC2)CC1	> 10 µM	4.68 µM	2.82 µM	> 10 µM	1.82 µM
COc1ccc(C)c2sc(N(CCCn3ccnc3)C(=O)Cc3ccc(F)cc3)nc12	> 10 µM	4.37 µM	1.95 µM	2.95 µM	4.37 µM
COc1ccc2cccc(NC(=O)c3cc(-c4cc(OC)c(OC)c(OC)c4)n[nH]3)c2n1	> 10 µM	> 10 µM	2.19 µM	9.33 µM	9.77 µM
COc1ccc(NC(=O)C2(N(Cc3ccccc3)C(=O)Cn3nnc4ccccc43)CCCCC2)cc1	> 10 µM	> 10 µM	4.47 µM	1.7 µM	> 10 µM
Cc1c(-c2ccc(F)cc2)[nH]c2ccc(CNc3nccc(N(C)C)n3)cc12	> 10 µM	3.31 µM	1.95 µM	3.89 µM	3.8 µM
O=C(CCCc1ccccc1)Nc1cc(C2CC2)nn1-c1nc(-c2ccccc2)cc(=O)[nH]1	> 10 µM	3.63 µM	3.72 µM	> 10 µM	6.03 µM
Cc1cc(C)n(-c2nc(Nc3ccc(Cl)cc3)nc(Nc3ccc(Cl)cc3)n2)n1	> 10 µM	3.63 µM	2.19 µM	6.76 µM	> 10 µM
